This note sets out measurements from US9693560B2, “Microbicide substances” (LANXESS Deutschland GmbH, priority 2013, dated 2017).

Counter-ions that a name gives are not always drawn. Like-named read-outs stand apart in the source and are kept apart here.

What all share (type): cell-based
One assay relates to Candida albicans. Description: MIC growth test (malt extract Bouillon). As to the method:
(§1) The growth of bacteria and fungi upon the addition of different biocidal mixtures was tested. The concentration above which growth is no longer detected is given as the minimum inhibitory concentration (MIC). The precultivation of the bacteria which were used in the test was performed on tryptone soya agar. The precultivation of the fungi which were used in the test was performed on malt extract agar. The growth in the MIC tests was checked in tryptone soya broth (bacteria) or malt extract Bouillon (fungi). The organisms were incubated at 26° C. and a relative […] humidity of 70 to 80%. The bacteria were evaluated after 4 days, and the fungi were evaluated […] after 7 days.
(§2) The synergistic index (SI) was determined in accordance with the method described by Kull et al. (F. C. Kull et al., Applied Microbiology 9 (1961), 538-541).
(§3) The following equation applies here: SI=QA/Qa+QB/Qb

The test system of a further assay is Pseudomonas aeruginosa. The experiment in a line: MIC growth test (tryptone soya broth). The protocol: as §1, §2, §3
In a further assay the test system is Enterococcus hirae. Description: MIC growth test (tryptone soya broth). As to the method: as §1, §2, §3
Assay [1] relates to Corynebacterium ammoniagenes. Description: MIC growth test (tryptone soya broth). The protocol: as §1, §2, §3
The subject of a further assay is Enterobacter aerogenes. Description: MIC growth test (tryptone soya broth). The protocol: as §1, §2, §3
In another assay the test system is Pseudomonas stutzeri. The experiment in a line: MIC growth test (tryptone soya broth). The protocol:
as §1, §2, §3

The test system of another assay is Alcaligenes faecalis. The experiment in a line: MIC growth test (tryptone soya broth). As to the method: as §1, §2, §3
The next assay relates to Bacillus subtilis. The experiment in a line: MIC growth test (tryptone soya broth). The protocol:
as §1, §2, §3

Another assay has as its system Proteus hauseri. The experiment in a line: MIC growth test (tryptone soya broth). As to the method:
as §1, §2, §3

For another assay, the system named is Citrobacter freundii. Description: MIC growth test (tryptone soya broth). The protocol: as §1, §2, §3
For a further assay, the system named is Staphylococcus aureus. Description: MIC growth test (tryptone soya broth). The protocol: as §1, §2, §3
In a further assay the test system is Stachybotrys chartarum. The experiment in a line: MIC growth test (malt extract Bouillon). The protocol:
as §1, §2, §3

In a further assay the test system is Alternaria alternata. The experiment in a line: MIC growth test (malt extract Bouillon). As to the method:
as §1, §2, §3

For the next assay, the system named is Escherichia coli. The experiment in a line: MIC growth test (tryptone soya broth). The protocol: as §1, §2, §3
A further assay concerns Geotrichum candidum. Description: MIC growth test (malt extract Bouillon). As to the method:
as §1, §2, §3

A further assay relates to Paecilomyces formosus. The experiment in a line: MIC growth test (malt extract Bouillon). The protocol: as §1, §2, §3
In a further assay the test system is Penicillium pinophilum. The experiment in a line: MIC growth test (malt extract Bouillon). The following applies: Talaromyces pinophilus. The protocol: as §1, §2, §3
Another assay relates to Salmonella enterica. Description: MIC growth test (tryptone soya broth). The following applies: Example 3, Table 11. The protocol:
as §1, §2, §3

Turning to `O=c1[nH]sc2ccccc12` [BIT, 1,2-benzisothiazolin-3-one], the MIC in the assay with Candida albicans (Example 3, Table 17) is on record as 25 ppm; with Pseudomonas aeruginosa (Example 3, Table 11) it was 50 ppm; with Enterococcus hirae (Example 3, Table 11), 10 ppm; in assay [1] (Example 3, Table 11), 37.5 ppm; with Enterobacter aerogenes (Enterobacter aerogenes, Example 3, Table 11), 25 ppm; in the assay with Pseudomonas stutzeri (Pseudomonas stutzeri, Example 3, Table 11) it was 10 ppm. Moreover, the MIC in the assay with Alcaligenes faecalis (Example 3, Table 11) is recorded as 2.5 ppm; in the assay on Bacillus subtilis (Example 3, Table 11), 5 ppm; in the assay on Proteus hauseri (Example 3, Table 11) it was 7.5 ppm; with Citrobacter freundii (Example 3, Table 11) it was 10 ppm; in the assay on Staphylococcus aureus (Example 3, Table 14), 5 ppm.

Consider `Cn1sccc1=O` [MIT, 2-methyl-4-isothiazolin-3-one], for which the MIC in the assay with Stachybotrys chartarum (Example 4, Table 23) turned out to be 250 µg/mL; with Alternaria alternata, 100 µg/mL; in the assay on Escherichia coli, 25 µg/mL.

Regarding `CCCCCCCCCCCCNC(=N)N` [DGH, dodecylguanidine hydrochloride], the MIC in the assay on Stachybotrys chartarum (Example 2, Table 10) turned out to be 7.5 µg/mL; with Stachybotrys chartarum (Example 4, Table 23), 10 µg/mL; in the assay on Geotrichum candidum, 10 µg/mL; with Paecilomyces formosus, 5 µg/mL; with Alternaria alternata it was 10 µg/mL; in the assay with Penicillium pinophilum, 7.5 µg/mL. Also, the MIC in the assay on Candida albicans stood at 25 µg/mL; with Pseudomonas aeruginosa, 25 µg/mL; in the assay on Enterococcus hirae, 2.5 µg/mL; in assay [1] it was 2.5 µg/mL; in the assay with Escherichia coli it was 5 µg/mL; in the assay on Enterobacter aerogenes (Klebsiella aerogenes) it was 10 µg/mL. Further, the MIC was determined as 5 µg/mL with Pseudomonas stutzeri (Stutzerimonas stutzeri); 10 µg/mL with Alcaligenes faecalis; 10 ppm in the assay with Alcaligenes faecalis (Example 3, Table 11); 2.5 µg/mL in the assay with Bacillus subtilis (Example 2, Table 7); 3.75 µg/mL with Bacillus subtilis (Example 3, Table 11); 10 µg/mL in the assay with Salmonella enterica. For the same compound, the MIC in the assay with Proteus hauseri is 10 µg/mL; in the assay on Citrobacter freundii, 5 µg/mL; in the assay on Citrobacter freundii (Example 3, Table 11) it was 5 ppm; in the assay with Staphylococcus aureus, 1 µg/mL; in the assay with Staphylococcus aureus (Example 3, Table 14), 1 ppm.
